# According to ChEMBL document CHEMBL1201862, “PubChem BioAssay data set” (2004):
#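 Five compound concentrations were applied to cells in 96-well plates for 48 hours; endpoints were derived by simple linear interpolation of the resulting dose-response curve. GI50 is the concentration that inhibits growth by half.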 The source made the active and inactive calls. Cut-off read from the data, not from the text of the source: active = GI50 up to about 1.1 µM and inactive = higher.
# How the values were obtained:
# Test in all cases: inhibition of tumour cell growth, NCI panel, 48 h
# KM-20L2 = test system: KM-20L2
# M19-MEL = test system: M19-MEL
# DMS-114 = test system: DMS-114
# DLD-1 = test system: DLD-1
# T47D = test system: T47D
# MCF7 = test system: MCF7
# DMS-273 = test system: DMS-273
# XF498 = test system: XF498
SMILES,GI50 (T47D),GI50 (MCF7),further results
O=C(NC1CCCCCC1)C1C(=O)N(C2CCCCCC2)C(=O)/C1=N\O (stereo unspecified),,,GI50 (KM-20L2): 23.1 µM (inactive); GI50 (M19-MEL): 28.2 µM (inactive); GI50 (DMS-114): 33 µM (inactive); GI50 (DLD-1): 44.1 µM (inactive)
c1ccc(-c2cc(-c3ccccc3)nc(-c3ccncc3)c2)cc1,> 100 µM (inactive),> 100 µM (inactive),
Cc1cc2ncn(CC(=O)O)c2cc1C,> 100 µM (inactive),> 100 µM (inactive),
COc1cc(C(c2c(O)c3ccccc3oc2=O)c2c(O)c3ccccc3oc2=O)ccc1O,17.9 µM (inactive),19.3 µM (inactive),
CC[C@@H]1/C=C/C=C/C[C@H](C)[C@@H](O)[C@](C)(O)C(=O)[C@H](C)[C@@H](O)[C@H](C)C(=O)[C@H](C)[C@@H](O)[C@H](C)/C=C/C(=O)O[C@H]2[C@@H](C)[C@@H](CC1)O[C@]1(O[C@H](CC(C)O)[C@H](C)CC1=O)[C@@H]2C (stereo partly specified),< 0.0025 µM (active),< 0.0025 µM (active),
COc1cc(C2C3=C(COC3=O)Oc3cc4c(cc32)OCO4)ccc1OC(C)=O (stereo unspecified),0.565 µM (active),0.29 µM (active),
ClCCN1CCO/C1=N/c1ccc2c(c1)CCCC2,8.51 µM (inactive),,
N#Cc1c(N)nc2c(/N=N\c3ccccc3)c(N)nn2c1Nc1ccccc1,,1.51 µM (inactive),
C1=C2C3=[N+](CCCC3)CC2Cc2ccsc21 (stereo unspecified),22.8 µM (inactive),> 100 µM (inactive),
C1C2CC3CC1CC(Nc1nc(NC45CC6CC(CC(C6)C4)C5)nc(NC45CC6CC(CC(C6)C4)C5)n1)(C2)C3,72.1 µM (inactive),55.1 µM (inactive),
Cc1cccc2c1CC1(C2)Cc2c(C)cccc2C1=O (stereo unspecified),44.8 µM (inactive),27.2 µM (inactive),
COc1ccc2c([nH]c3cc(O)c(C)cc32)c1C=O,,,GI50 (KM-20L2): > 25 µM (inactive); GI50 (M19-MEL): > 25 µM (inactive); GI50 (DMS-273): > 25 µM (inactive); GI50 (DMS-114): > 25 µM (inactive); GI50 (DLD-1): > 25 µM (inactive); GI50 (XF498): > 25 µM (inactive)
CC(=O)/C(=C\NC(N)=S)C(=O)Nc1ccccc1C,> 100 µM (inactive),> 100 µM (inactive),
O=P1(c2ccccc2)c2ccccc2CCc2ccccc21,,> 100 µM (inactive),
CC1=NN(C(=O)c2ccccc2O)C(=O)/C1=C/c1ccco1,> 100 µM (inactive),4.27 µM (inactive),GI50 (KM-20L2): 15 µM (inactive); GI50 (M19-MEL): 1.88 µM (inactive); GI50 (DMS-114): 0.604 µM (active); GI50 (DLD-1): 0.502 µM (active); GI50 (XF498): 25.8 µM (inactive)
O=C(O)CSc1cc(-c2ccccc2)nc2ccccc12,57.9 µM (inactive),,

SMILES,GI50 (T47D),GI50 (MCF7),further results
C=C1C(=O)O[C@H]2[C@H](OC(C)=O)[C@@H](C)CCC/C(C)=C/CC[C@@]3(C)O[C@@H]3C[C@@H]12,1.6 µM (inactive),2.31 µM (inactive),
COc1cc2ccc1OCc1cccc(n1)COc1ccc(cc1OC)/C=N\c1ccc(cc1)-c1ccc(cc1)/N=C\2,> 100 µM (inactive),> 100 µM (inactive),
COc1cccc(O)c1-c1cc(=O)c2c(O)c(OC)c(OC)c(OC)c2o1 [SKULLCAPFLAVONE II],,27.3 µM (inactive),
[N-]=[N+]=CC(=O)OC1Cc2ccccc2C1,> 100 µM (inactive),> 100 µM (inactive),
COc1ccc(/N=N/C(=O)NC(CC(C)C)C(=O)NCC(=O)O)cc1 (stereo unspecified),3.03 µM (inactive),13.2 µM (inactive),
O=C1C=C/C(=N\c2ccc3c(c2)C(Br)c2ccccc2-3)O1 (stereo unspecified),,,GI50 (M19-MEL): > 100 µM (inactive); GI50 (DMS-273): > 10 µM (inactive); GI50 (DMS-114): 92.7 µM (inactive); GI50 (DLD-1): > 100 µM (inactive)
COC(=O)c1cc2c(c3c1CC(Cc1ccccc1)C3=O)CCC2 (stereo unspecified),25.5 µM (inactive),69.7 µM (inactive),
COc1cc(Cn2c3ccccc3c3cc(C)c4c(c32)C=CC(C)(CCC=C(C)C)O4)cc2c1[nH]c1ccccc12 (stereo unspecified) [CHRESTFOLINE C],,,GI50 (KM-20L2): > 100 µM (inactive); GI50 (M19-MEL): > 100 µM (inactive); GI50 (DMS-273): > 100 µM (inactive); GI50 (DMS-114): > 100 µM (inactive); GI50 (DLD-1): > 100 µM (inactive)
CC(C)(C)C1=C(Br)C(F)(C(C)(C)C)OP1(=O)c1ccccc1 (stereo unspecified),15.9 µM (inactive),15.8 µM (inactive),
COC(=O)[C@H](Cc1c[nH]c2ccccc12)NP(=O)(O)OC[C@H]1O[C@@H](n2cc(C)c(=O)[nH]c2=O)C[C@@H]1N=[N+]=[N-],> 100 µM (inactive),> 100 µM (inactive),
Cc1c2c(OCC3CCCCO3)nn(C)c(=O)c2c(C)n1-c1ccccc1 (stereo unspecified),22.1 µM (inactive),14.9 µM (inactive),
CC(=O)O/N=C(Cl)/C(Cl)=N/OC(C)=O,,,GI50 (KM-20L2): > 100 µM (inactive); GI50 (DMS-273): > 100 µM (inactive); GI50 (DMS-114): > 100 µM (inactive); GI50 (DLD-1): > 100 µM (inactive); GI50 (XF498): > 100 µM (inactive)
COc1cc(OC)c2c(=O)cc(-c3ccc(OC)c(OC)c3OC)oc2c1,,,GI50 (KM-20L2): > 100 µM (inactive); GI50 (M19-MEL): > 100 µM (inactive); GI50 (DMS-114): > 100 µM (inactive); GI50 (DLD-1): > 100 µM (inactive); GI50 (XF498): > 100 µM (inactive)
Brc1ccc2[nH]cc(-c3nc(-c4c[nH]c5ccccc45)cs3)c2c1,3.68 µM (inactive),2.8 µM (inactive),
CC(=O)Oc1c(C)c2c(O)c3c1C1=C(OCOC1=C(C)C3=O)/C(C)=C/C(C)(O)C(O)C(C)C(O)C1C(=O)OC(C(C)C1O)C(C)(O)/C=C\C=C(C)C(=O)N2 (stereo unspecified),> 100 µM (inactive),37.1 µM (inactive),
CN1C(=O)c2ccccc2NC(=O)C12O[C@@H]2c1cccc(O)c1 (stereo partly specified),> 100 µM (inactive),> 100 µM (inactive),
